From patent US20220144815A1, “1,3,4-OXADIAZOLES AND THEIR DERIVATIVES AS NEW ANTIFUNGAL AGENTS” (Bayer Aktiengesellschaft, priority 2018, published 2022) come the findings set out here.

Data set [1] in a line: Log P by HPLC on reversed phase columns, method [a] (EEC directive 79/831 Annex V.A8). Type of data set: physicochemical. Particulars: reversed phase HPLC column, read-out: logP. A digest of the protocol:
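Reversed-phase HPLC with LC-UV detection per EEC directive 79/831 Annex V.A8, acidic eluent of 0.1% formic acid in water and acetonitrile, linear gradient 10% to 95% acetonitrile. Log P derived from retention times, calibrated against straight-chain alkan-2-ones (C3–C16) by linear interpolation.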

Data set [2] concerns Colletotrichum lindemuthianum. Kind of data set: Example B: in vitro cell test, spore germination and mycelium growth in liquid culture. Type of data set: cell-based. As to conditions: 144 h, 20 ppm of tested compound, 6 days incubation, read-out: efficacy (inhibition of fungal growth). The protocol: • Solvent: dimethyl sulfoxide Culture medium: 14.6 g anhydrous D-glucose (VWR), • 7.1 g mycological peptone (Oxoid), • 1.4 g granulated yeast extract (Merck), QSP 1 liter Inoculum: spore suspension The tested compounds were solubilized in dimethyl sulfoxide and the solution used to prepare the required range of concentrations. The final concentration of dimethyl sulfoxide used in the assay was ≤1%. A spore suspension of Colletotrichum lindemuthianum was prepared and diluted to the desired spore density. The compounds were evaluated for their ability to inhibit spore germination and mycelium growth in liquid culture assay. The compounds were added in the desired concentration to the culture medium with spores. After 6 days incubation, fungi-toxicity of compounds was determined by spectrometric measurement of mycelium growth. Inhibition of fungal growth was determined by comparing the absorbance values in wells containing the tested compounds with the absorbance in control wells without tested compounds.

Data set [3] deals with Alternaria brassicae. As to the kind of experiment: Example E: in vivo preventive test (cabbage). Particulars: 144 h, 500 ppm of tested compound, preventive spray, evaluated 6 days after inoculation, read-out: efficacy. On the procedure:
Solvent: 5% by volume of dimethyl sulfoxide • 10% by volume of acetone Emulsifier: 1 μL of Tween® 80 per mg of active ingredient The tested compounds were made soluble and homogenized in a mixture of Dimethyl sulfoxide/Acetone/Tween® 80 and then diluted in water to the desired concentration. The young plants of cabbage were treated by spraying the tested compound prepared as described above. Control plants were treated only with an aqueous solution of Acetone/Dimethyl sulfoxide/Tween® 80. After 24 hours, the plants were contaminated by spraying the leaves with an aqueous suspension of Alternaria brassicae spores. The contaminated cabbage plants were incubated for 6 days at 20° C. and at 100% relative humidity. The test was evaluated 6 days after the inoculation. 0% means an efficacy which corresponds to that of the control plants while an efficacy of 100% means that no disease was observed.

The test system of data set [4] is Phakopsora pachyrhizi. Kind of data set: Example F: in vivo preventive test (soybeans), DMSO/acetone/Tween 80. As to conditions: 288 h, 500 ppm of tested compound, preventive spray, soybean, evaluated 12 days after inoculation, read-out: efficacy. On the procedure:
Solvent: 5% by volume of dimethyl sulfoxide • 10% by volume of acetone
Emulsifier: 1 μL of Tween® 80 per mg of active ingredient
The tested compounds were made soluble and homogenized in a mixture of dimethyl sulfoxide/acetone/Tween® 80 and then diluted in water to the desired concentration.
The young plants of wheat were treated by spraying the tested compound prepared as described above. Control plants were treated only with an aqueous solution of acetone/dimethyl sulfoxide/Tween® 80.
After 24 hours, the plants were contaminated by spraying the leaves with an aqueous suspension of Phakospora pachyrhizi spores. The contaminated soybean plants were incubated for 24 hours at 24° C. and at 100% relative humidity and then for 11 days at 24° C. and at 70-80% relative humidity.
The test was evaluated 12 days after the inoculation. 0% means an efficacy which corresponds to that of the control plants while an efficacy of 100% means that no disease was observed.

The mark [5] stands for this setting: log P determined according to method [a] (HPLC on reversed phase columns).
[6] abbreviates: method [a], HPLC on reversed phase columns.

Where two headings read alike, the source gives them in different places.

Take `CC(C)C(Nc1ncc(-c2nnc(C(F)F)o2)cn1)c1ccccc1` (racemic) [I.139, 5-[5-(difluoromethyl)-1,3,4-oxadiazol-2-yl]-N-[(1RS)-2-methyl-1-phenylpropyl]pyrimidin-2-amine]: the chromatographic logP in data set [1] (setting [5]) stood at 3.57. For the same molecule, in data set [2], the inhibition of growth at 20 µg/mL lay in the range of 90 to 100%.

`N#CC(Nc1ncc(-c2nnc(C(F)F)o2)cn1)c1ccc(F)cc1` (racemic) [I.141, (2RS)—({5-[5-(difluoromethyl)-1,3,4-oxadiazol-2-yl]pyrimidin-2-yl}amino)(4-fluorophenyl)acetonitrile]: the chromatographic logP in data set [1] (setting [5]) turned out to be 2.65. Further, the inhibition of growth at 20 µg/mL in data set [2] fell in the range of 70 to 79%.

Take `CSc1ccc(-c2nnc(C(F)F)o2)cc1` [I.002, 2-(difluoromethyl)-5-[4-(methylsulfanyl)phenyl]-1,3,4-oxadiazole]: in data set [3], the pest or weed control at 500 µg/mL is 70 to 79%.

Consider `FC(F)c1nnc(-c2ccc(-n3ccnn3)cc2)o1` [I.005, 2-(difluoromethyl)-5-[4-(1H-1,2,3-triazol-1-yl)phenyl]-1,3,4-oxadiazole], for which, in data set [3], the pest or weed control at 500 µg/mL was 90 to 100%.

For the molecule `FC(F)c1nnc(-c2ccc(-c3ccccc3)cc2)o1` [I.007, 2-([biphenyl]-4-yl)-5-(difluoromethyl)-1,3,4-oxadiazole], in data set [3], the pest or weed control at 500 µg/mL fell in the range of 80 to 89%.

Turning to `FC(F)c1nnc(-c2ccc(Br)cc2)o1` [I.009, 2-(4-bromophenyl)-5-(difluoromethyl)-1,3,4-oxadiazole], the pest or weed control at 500 µg/mL in data set [4] was 70 to 79%.

In the case of `FC(F)c1nnc(-c2ccc(Cn3ccnc3)cc2)o1` [I.010, 2-(difluoromethyl)-5-[4-(1H-imidazol-1-ylmethyl)phenyl]-1,3,4-oxadiazole], in data set [3], the pest or weed control at 500 µg/mL lay in the range of 90 to 100%.

With `FC(F)c1nnc(-c2ccc(-c3nnc(C(F)F)o3)cc2)o1` [I.019, 2,2′-(1,4-phenylene)bis[5-(difluoromethyl)-1,3,4-oxadiazole]], in data set [4], the pest or weed control at 500 µg/mL was 90 to 100%.

Take `FC(F)c1nnc(-c2ccc(COc3ccc(Cl)cc3)cc2)o1` [I.024, 2-{4-[(4-chlorophenoxy)methyl]phenyl}-5-(difluoromethyl)-1,3,4-oxadiazole]: the pest or weed control at 500 µg/mL in data set [4] lay in the range of 90 to 100%.

For `Fc1ccccc1C1(Nc2ccc(-c3nnc(C(F)F)o3)cc2)CC1` [I.025, 4-[5-(difluoromethyl)-1,3,4-oxadiazol-2-yl]-N-[1-(2-fluorophenyl)cyclopropyl]aniline], the inhibition of growth at 20 µg/mL in data set [2] lay in the range of 80 to 89%.

Take `FC(F)c1nnc(-c2ccc(N3CCCCC3)nc2)o1` [I.040, 5-[5-(difluoromethyl)-1,3,4-oxadiazol-2-yl]-2-(piperidin-1-yl)pyridine]: the pest or weed control at 500 µg/mL in data set [3] lay in the range of 70 to 79%.

As to `Nc1ncc(-c2nnc(C(F)F)o2)cn1` [I.059, 5-[5-(difluoromethyl)-1,3,4-oxadiazol-2-yl]pyrimidin-2-amine], in data set [4], the pest or weed control at 500 µg/mL was in the range of 90 to 100%.

Take `FC(F)c1nnc(-c2cnc(Cl)nc2)o1` [I.061, 2-chloro-5-[5-(difluoromethyl)-1,3,4-oxadiazol-2-yl]pyrimidine]: the inhibition of growth at 20 µg/mL in data set [2] lay within 90 to 100%.

In the case of `C#CCNc1ncc(-c2nnc(C(F)F)o2)cn1` [I.063, 5-[5-(difluoromethyl)-1,3,4-oxadiazol-2-yl]-N-(prop-2-yn-1-yl)pyrimidin-2-amine], the inhibition of growth at 20 µg/mL in data set [2] lay in the range of 90 to 100%.

Consider `FC(F)c1nnc(-c2cnc(NCC3CC3)nc2)o1` [I.067, N-(cyclopropylmethyl)-5-[5-(difluoromethyl)-1,3,4-oxadiazol-2-yl]pyrimidin-2-amine], for which, in data set [2], the inhibition of growth at 20 µg/mL fell in the range of 80 to 89%.

Take `FC(F)c1nnc(-c2cnc(-c3ccsc3)nc2)o1` [I.072, 5-[5-(difluoromethyl)-1,3,4-oxadiazol-2-yl]-2-(3-thienyl)pyrimidine]: the pest or weed control at 500 µg/mL in data set [3] was in the range of 70 to 79%.

As to `FC(F)c1nnc(-c2cnc(CC3CCCCC3)nc2)o1` [I.083, 2-(cyclohexylmethyl)-5-[5-(difluoromethyl)-1,3,4-oxadiazol-2-yl]pyrimidine], the pest or weed control at 500 µg/mL in data set [4] lay in the range of 90 to 100%.

As for `CN(c1ccccc1)c1ncc(-c2nnc(C(F)F)o2)cn1` [I.087, 5-[5-(difluoromethyl)-1,3,4-oxadiazol-2-yl]-N-methyl-N-phenylpyrimidin-2-amine], in data set [3], the pest or weed control at 500 µg/mL lay within 90 to 100%.

With `FC(F)c1nnc(-c2cnc(NCc3ccccc3)nc2)o1` [I.088, N-benzyl-5-[5-(difluoromethyl)-1,3,4-oxadiazol-2-yl]pyrimidin-2-amine], the pest or weed control at 500 µg/mL in data set [4] was 90 to 100%.

Consider `COc1ccc(-c2ncc(-c3nnc(C(F)F)o3)cn2)cc1` [I.089, 5-[5-(difluoromethyl)-1,3,4-oxadiazol-2-yl]-2-(4-methoxyphenyl)pyrimidine], for which the inhibition of growth at 20 µg/mL in data set [2] fell in the range of 90 to 100%.

As for `Fc1cccc(Nc2ncc(-c3nnc(C(F)F)o3)cn2)c1` [I.094, 5-[5-(difluoromethyl)-1,3,4-oxadiazol-2-yl]-N-(3-fluorophenyl)pyrimidin-2-amine], in data set [3], the pest or weed control at 500 µg/mL was 90 to 100%.

For `FC(F)c1nnc(-c2cnc(NCC3CCOCC3)nc2)o1` [I.105, 5-[5-(difluoromethyl)-1,3,4-oxadiazol-2-yl]-N-(tetrahydro-2H-pyran-4-ylmethyl)pyrimidin-2-amine], in data set [1] (setting [5]), the chromatographic logP was determined as 1.73. In addition, the pest or weed control at 500 µg/mL in data set [3] was in the range of 80 to 89%.

With `Fc1ccc(CNc2ncc(-c3nnc(C(F)F)o3)cn2)cc1` [I.112, 5-[5-(difluoromethyl)-1,3,4-oxadiazol-2-yl]-N-(4-fluorobenzyl)pyrimidin-2-amine], in data set [1] (setting [5]), the chromatographic logP amounted to 2.64. Also, the inhibition of growth at 20 µg/mL in data set [2] fell in the range of 70 to 79%.

`Fc1ccc(Cc2ncc(-c3nnc(C(F)F)o3)cn2)c(F)c1` [I.115, 2-(2,4-difluorobenzyl)-5-[5-(difluoromethyl)-1,3,4-oxadiazol-2-yl]pyrimidine]: the chromatographic logP in data set [1] (setting [5]) was determined as 2.7. Further, the pest or weed control at 500 µg/mL in data set [4] fell in the range of 70 to 79%.

Take `N#Cc1ccc(C2(Nc3ncc(-c4nnc(C(F)F)o4)cn3)CC2)cc1` [I.152, 4-[1-({5-[5-(difluoromethyl)-1,3,4-oxadiazol-2-yl]pyrimidin-2-yl}amino)cyclopropyl]benzonitrile]: the chromatographic logP in data set [1] (setting [5]) is 2.33. Moreover, the inhibition of growth at 20 µg/mL in data set [2] lay in the range of 90 to 100%.

As for `FC(F)c1nnc(-c2cnc(NC3(c4ccccc4)CCC3)nc2)s1` [I.159, 5-[5-(difluoromethyl)-1,3,4-thiadiazol-2-yl]-N-(1-phenylcyclobutyl)pyrimidin-2-amine], the chromatographic logP in data set [1] (setting [5]) worked out at 3.54. The inhibition of growth at 20 µg/mL in data set [2] fell in the range of 90 to 100%.

Consider `CON(Cc1ccc(Cl)cc1)c1ncc(-c2nnc(C(F)F)o2)cn1` [I.169, N-(4-chlorobenzyl)-N-{5-[5-(difluoromethyl)-1,3,4-oxadiazol-2-yl]pyrimidin-2-yl}-O-methylhydroxylamine], for which, in data set [1] (setting [5]), the chromatographic logP was 3.31. In data set [2], the inhibition of growth at 20 µg/mL lay in the range of 80 to 89%.

In the case of `FC(F)(F)c1nnc(-c2cnc(NC3(c4ccccc4)CCC3)nc2)s1` [I.173, N-(1-phenylcyclobutyl)-5-[5-(trifluoromethyl)-1,3,4-thiadiazol-2-yl]pyrimidin-2-amine], the chromatographic logP in data set [1] (setting [6]) was 4.12. In addition, the inhibition of growth at 20 µg/mL in data set [2] lay in the range of 80 to 89%.

Consider `FC(F)(Cl)c1nnc(-c2cnc(NC3(c4ccccc4)CCC3)nc2)o1` [I.176, 5-{5-[chloro(difluoro)methyl]-1,3,4-oxadiazol-2-yl}-N-(1-phenylcyclobutyl)pyrimidin-2-amine], for which, in data set [1] (setting [6]), the chromatographic logP came out at 4.08. Also, the inhibition of growth at 20 µg/mL in data set [2] lay in the range of 70 to 79%.

`FC(F)c1nnc(-c2cnc(NC3(c4ccc(Cl)cc4)CCCCC3)nc2)o1` [I.182, N-[1-(4-chlorophenyl)cyclohexyl]-5-[5-(difluoromethyl)-1,3,4-oxadiazol-2-yl]pyrimidin-2-amine]: the chromatographic logP in data set [1] (setting [6]) is 4.4. In addition, the inhibition of growth at 20 µg/mL in data set [2] was in the range of 70 to 79%.

Regarding `FC(F)c1nnc(-c2cnc(NC3(c4ccccc4Br)CC3)nc2)o1` [I.183, N-[1-(2-bromophenyl)cyclopropyl]-5-[5-(difluoromethyl)-1,3,4-oxadiazol-2-yl]pyrimidin-2-amine], the chromatographic logP in data set [1] (setting [6]) was found to be 3.49. Also, in data set [2], the inhibition of growth at 20 µg/mL lay in the range of 80 to 89%.
